Assay [1] relates to primary human fibroblasts. Put plainly: Transfection of primary human fibroblasts with pCMV β-gal DNA, in situ β-galactosidase staining. In kind it is cell-based.
Method: All cell lines were obtained from American Type Culture Collection (Rockville, Md.). Standard tissue culture methods were employed. […] Human fibroblasts were isolated from neonatal foreskin tissue and prepared as follows. Rinsed, fresh tissue was exposed to 25 units/ml dispase (Collaborative Research, Bedford, Mass.) overnight at 4° C., separated into epidermis and dermis, and the minced dermis was digested 10 min at 37° C. in 0.25% (v/v) trypsin, 1 mM EDTA. The reaction was stopped by a rinse and centrifugation in DMEM with 10% (v/v) FBS, in which the cells were also cultured. All cultures were incubated at 37° C., 5% CO2. Media for all cultures routinely included 100 units/ml penicillin and 100 μg/ml streptomycin.
For transfection of CHO-K1, NIH-3T3, and human fibroblast cells in 24-well plates, lipid and DNA (PCMV β-gal) were diluted separately into 25 μl aliquots of Opti-MEM I Reduced Serum Medium (GIBCO BRL; serum-free). […]
Cells were rinsed with PBS, fixed for 5 minutes in 2% (v/v) formaldehyde, 0.2% glutaraldehyde in PBS, rinsed twice with PBS, and stained 2 hr to overnight with 0.1% β-gal, 5 mM potassium ferrocyanide, 5 mM potassium ferrocyanide, 2 mM MgCl2 in PBS. […] Transfection efficiency is evaluated by counting or estimating the number of β-gal positive cells (blue-stained cells). […]
The next assay deals with Jurkat cells. Put plainly: Transfection of Jurkat cells with pCMVCAT DNA, CAT activity of cell lysates. Type of assay: cell-based. Here is the method: (§1) All cell lines were obtained from American Type Culture Collection (Rockville, Md.). Standard tissue culture methods were employed. Chinese hamster ovary (CHO-K1) cells were cultured in EMEM (GIBCO BRL) containing 2 mM proline and 5% (v/v) fetal bovine serum (FBS). NIH 3T3 cells were cultured in Dulbecco's-modified Eagle's medium (DMEM) containing 10% (v/v) calf serum (CS). Jurkat cells were cultured in RPMI 1640 (GIBCO BRL) containing 10% (v/v) FBS. Human fibroblasts were isolated from neonatal foreskin tissue and prepared as follows. Rinsed, fresh tissue was exposed to 25 units/ml dispase (Collaborative Research, Bedford, Mass.) overnight at 4° C., separated into epidermis and dermis, and the minced dermis was digested 10 min at 37° C. in 0.25% (v/v) trypsin, 1 mM EDTA. The reaction was stopped by a rinse and centrifugation in DMEM with 10% (v/v) FBS, in which the cells were also cultured. All cultures were incubated at 37° C., 5% CO2. Media for all cultures routinely included 100 units/ml penicillin and 100 μg/ml streptomycin.
For transfection of Jurkat cells in suspension, lipid and DNA (pCMVCAT) were diluted separately into 500 μl aliquots of Opti-MEM I Reduced Serum Medium (GIBCO BRL; serum-free). These aliquots were gently mixed and incubated at room temperature for 15-45 minutes to form lipid-DNA complexes. […]

For another assay, the system named is CHO-K1 cells. Put plainly: Transfection of CHO-K1 cells with pCMV β-gal DNA, in situ β-galactosidase staining. Type of assay: cell-based, Chinese hamster. To be noted: CHO-K1 cells (Table 3). The procedure: as §1, with “streptomycin. […]” for “streptomycin.”
(§2) Cell lysates were assayed for β-galactosidase activity as described by Sanes et al. (1986) EMBO J. 5:3133. […] Transfection efficiency is evaluated by counting or estimating the number of β-gal positive cells (blue-stained cells). […]

The test system of a further assay is NIH-3T3 cells. The assay is described as follows: Transfection of NIH-3T3 cells with pCMV β-gal DNA, in situ β-galactosidase staining. Type of assay: cell-based. The procedure: as §1, with “streptomycin. […]” for “streptomycin.”
as §2

“N,N,N′,N′-tetramethyltetrapalmyl-sperminetetrammonium iodide [Compound 3]”: the “transfection efficiency relative to DOSPA” value is “comparable to DOSPA” in assay [1] (human fibroblasts, lower concentration of lipid required for optimal activity) and “comparable to DOSPA” with Jurkat cells (Jurkat cells, lower concentration of lipid required for optimal activity). Moreover, the “effectiveness for DNA transfection” value (in assay [1] (primary human fibroblast cells (Table 1)); in the assay with Jurkat cells (Jurkat cells (Table 4)); with CHO-K1 cells; in the assay on NIH-3T3 cells (NIH-3T3 cells (Table 2))) was “highly effective” each time. Also, the “transfection effectiveness relative to DOSPA” value with NIH-3T3 cells (NIH-3T3 cells, low amounts of DNA) is “approximately 10 fold”.

The values above are taken from patent US7501542B2, “Highly-packed polycationic ammonium, sulfonium and phosphonium lipids” (Invitrogen Corporation, priority 1993, dated 2009).
